Consider 2 compounds from publication PMC4866600, “Structural basis for the blockade of MATE multidrug efflux pumps” (Nature Communications, 2015).

One assay has as its target T1, DinF-BH (Halalkalibacterium halodurans (Bacillus halodurans), UniProt Q9KAX3).
T1 sequence (Q9KAX3 1-464): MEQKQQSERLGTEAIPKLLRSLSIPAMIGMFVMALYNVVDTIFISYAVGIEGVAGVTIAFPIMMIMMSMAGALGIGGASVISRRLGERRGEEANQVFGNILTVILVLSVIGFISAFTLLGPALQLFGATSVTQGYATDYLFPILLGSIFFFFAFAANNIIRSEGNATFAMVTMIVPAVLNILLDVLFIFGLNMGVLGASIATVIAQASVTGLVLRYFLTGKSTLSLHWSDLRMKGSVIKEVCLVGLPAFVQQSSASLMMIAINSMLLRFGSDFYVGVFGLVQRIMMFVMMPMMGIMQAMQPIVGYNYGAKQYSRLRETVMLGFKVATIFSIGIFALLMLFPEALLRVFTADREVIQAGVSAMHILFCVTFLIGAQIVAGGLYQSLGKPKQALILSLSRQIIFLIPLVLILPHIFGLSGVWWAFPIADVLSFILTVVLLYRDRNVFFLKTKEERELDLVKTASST
The assay is described as follows: biochemical. Here is the method: (§1) [^3H]-R6G (2.7 Ci mmol^−1, 1.0 mCi ml^−1) was custom-synthesized by Moravek Biochemicals (Brea, California, USA). [^3H]-R6G binding assay was performed by using immobilized protein on Ni-NTA beads[31][42] as follows. Briefly, freshly purified protein (DinF-BH or NorM-NG) was mixed gently with pre-equilibrated Ni-NTA beads at 1 mg ml^−1 in buffers containing 20 mM Tris-HCl pH 8, 50 mM NaCl, 20% (v/v) glycerol, 0.02% (w/v) DDM, 1 mM TCEP (binding buffer) for >1 h at 4 °C. The mixture was centrifuged and the unbound material (supernatant) was discarded.
(§2) The beads were thoroughly washed, resuspended and aliquoted in the binding buffer. […] The samples were then transferred into micro-columns and centrifuged; the unbound material (flow-through) was discarded. The protein was eluted by using the binding buffer supplemented with 500 mM Imidazole. The radioactivity of the eluate was measured by liquid scintillation. […] All the experiments were performed in duplicate and repeated three times.

The next assay concerns the target NorM-NG (Neisseria gonorrhoeae, UniProt Q5F9J8). Description: biochemical. Format: binding. As to the method: as §1, §2

NorM-NG, sequence (Q5F9J8 entry or part of it): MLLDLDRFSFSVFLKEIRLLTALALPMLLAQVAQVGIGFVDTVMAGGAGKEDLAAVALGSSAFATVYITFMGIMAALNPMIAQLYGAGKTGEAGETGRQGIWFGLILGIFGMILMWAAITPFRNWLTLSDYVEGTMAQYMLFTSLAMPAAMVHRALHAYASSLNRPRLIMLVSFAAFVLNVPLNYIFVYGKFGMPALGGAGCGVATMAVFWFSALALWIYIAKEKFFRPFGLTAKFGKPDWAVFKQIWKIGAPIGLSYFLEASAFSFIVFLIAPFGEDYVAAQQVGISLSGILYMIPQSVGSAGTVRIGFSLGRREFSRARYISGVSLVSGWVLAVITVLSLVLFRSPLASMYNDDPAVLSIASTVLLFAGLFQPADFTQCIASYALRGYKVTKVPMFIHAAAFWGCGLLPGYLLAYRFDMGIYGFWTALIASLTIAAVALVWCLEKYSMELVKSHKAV

For the compound `CC[n+]1c(-c2ccccc2)c2cc(N)ccc2c2ccc(N)cc21` [ethidium], the Ki at DinF-BH and on NorM-NG was less than 25 µM throughout.
On DinF-BH, `CC/N=c1\cc2oc3cc(NCC)c(C)cc3c(-c3ccccc3C(=O)OCC)c-2cc1C` [R6G, rhodamine 6G] came in with a Kd of approximately 5 µM and a Ki of less than 10 µM. Besides, on NorM-NG, the dissociation constant Kd was approximately 5 µM and the Ki was less than 10 µM.
